Experimental data from ChEMBL document CHEMBL1201862, “PubChem BioAssay data set” (2004).
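Protocol summary: plate cells (96-well), add compound at 5 concentrations, incubate 48 h, interpolate endpoints linearly. Here, GI50 denotes the concentration required for 50% inhibition of growth.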 Calls of active or inactive are those of the source. No stated cut-off is given here; in the data, active = GI50 up to about 1.1 µM and inactive = higher.

Experiments:
Test in all cases: NCI anticancer screen, dose series, 48 h
M14 = tested on: M14
NCI-H226 = tested on: NCI-H226
UACC-257 = tested on: UACC-257
Hs-578T = tested on: Hs-578T
OVCAR-3 = tested on: OVCAR-3
LOX IMVI = tested on: LOX IMVI
CAKI-1 = tested on: CAKI-1
Malme-3M = tested on: Malme-3M
OVCAR-4 = tested on: OVCAR-4
NCI-H522 = tested on: NCI-H522
HCT-116 = tested on: HCT-116
OVCAR-5 = tested on: OVCAR-5
A498 = tested on: A498
SK-OV-3 = tested on: SK-OV-3
TK-10 = tested on: TK-10
HOP-62 = tested on: HOP-62
IGROV-1 = tested on: IGROV-1
SF-295 = tested on: SF-295
DU-145 = tested on: DU-145
MDA-N = tested on: MDA-N

| Structure (SMILES) | GI50 (M14) | GI50 (NCI-H226) | GI50 (UACC-257) | GI50 (Hs-578T) | GI50 (OVCAR-3) | GI50 (LOX IMVI) | GI50 (CAKI-1) | GI50 (Malme-3M) | GI50 (OVCAR-4) | GI50 (NCI-H522) | GI50 (HCT-116) | GI50 (OVCAR-5) | GI50 (A498) | GI50 (SK-OV-3) | GI50 (TK-10) | GI50 (HOP-62) | GI50 (IGROV-1) | GI50 (SF-295) | GI50 (DU-145) | GI50 (MDA-N) |
| --- | --- | --- | --- | --- | --- | --- | --- | --- | --- | --- | --- | --- | --- | --- | --- | --- | --- | --- | --- | --- |
| CN(Cc1cc(Cl)cc(Cl)c1O)Cc1c(O)ccc2ccccc12 | 20.2 µM (inactive) | 20.6 µM (inactive) | 18.2 µM (inactive) | 19.1 µM (inactive) | 16.6 µM (inactive) | 16.7 µM (inactive) | 18.3 µM (inactive) | 14.9 µM (inactive) | 17.1 µM (inactive) | 15 µM (inactive) | 23.7 µM (inactive) | 23.1 µM (inactive) | 17.1 µM (inactive) | 18.2 µM (inactive) | 17.1 µM (inactive) | 18.1 µM (inactive) | 17.3 µM (inactive) | 17.2 µM (inactive) | 22.3 µM (inactive) | 24.9 µM (inactive) |
| O=C1c2ccccc2C(=O)N1CCCSc1ccccc1 | 66.7 µM (inactive) | > 100 µM (inactive) | 39.7 µM (inactive) | > 100 µM (inactive) | 28.8 µM (inactive) | > 100 µM (inactive) | 93.1 µM (inactive) | > 100 µM (inactive) | 71.9 µM (inactive) | 66.8 µM (inactive) | 94.2 µM (inactive) | > 100 µM (inactive) | 33 µM (inactive) | > 100 µM (inactive) | > 100 µM (inactive) | > 100 µM (inactive) | 93.8 µM (inactive) | 22.6 µM (inactive) | > 100 µM (inactive) | 91.4 µM (inactive) |
| c1cc2c(cc1NC1=NCCO1)CCCC2 | 2.88 µM (inactive) | 3.37 µM (inactive) | 3.77 µM (inactive) | 4.6 µM (inactive) | 3.51 µM (inactive) | 3.13 µM (inactive) | 18.6 µM (inactive) | 6.7 µM (inactive) | 10.7 µM (inactive) | 3.52 µM (inactive) | 2.76 µM (inactive) | 6.07 µM (inactive) | 3.76 µM (inactive) | 4.38 µM (inactive) | 10.6 µM (inactive) | 2.67 µM (inactive) | 4.37 µM (inactive) | 4.02 µM (inactive) | 5.08 µM (inactive) | 1.41 µM (inactive) |
| COC(=O)CC1C(C)(C)C(=O)C2CC3=C4CC(=O)OC(c5ccoc5)C4(C)CCC3C1(C)C2=O (centres undefined) | > 100 µM (inactive) | > 100 µM (inactive) | > 100 µM (inactive) | > 100 µM (inactive) | > 100 µM (inactive) | > 100 µM (inactive) | > 100 µM (inactive) | > 100 µM (inactive) | > 100 µM (inactive) | > 100 µM (inactive) | > 100 µM (inactive) | > 100 µM (inactive) | > 100 µM (inactive) | > 100 µM (inactive) | > 100 µM (inactive) | > 100 µM (inactive) | > 100 µM (inactive) | > 100 µM (inactive) | > 100 µM (inactive) | > 100 µM (inactive) |
| COc1ccc2c3c1O[C@H](c1ccc(O)cc1)[C@H]3[N+](C)(C)CC2 | > 100 µM (inactive) | > 100 µM (inactive) | > 100 µM (inactive) | > 100 µM (inactive) | > 100 µM (inactive) | > 100 µM (inactive) | > 100 µM (inactive) | > 100 µM (inactive) | 5.51 µM (inactive) | 42.8 µM (inactive) | > 100 µM (inactive) | > 100 µM (inactive) | > 100 µM (inactive) | > 100 µM (inactive) | > 100 µM (inactive) | > 100 µM (inactive) | > 100 µM (inactive) | > 100 µM (inactive) | > 100 µM (inactive) | > 100 µM (inactive) |
| CCCCCCCCCCCCCCCCCCNc1ccn(C2OC(CO)C(O)C2O)c(=O)n1 (centres undefined) | 55.5 µM (inactive) | > 100 µM (inactive) | > 100 µM (inactive) | > 28.8 µM (inactive) | > 100 µM (inactive) | > 62.8 µM (inactive) | > 100 µM (inactive) | > 100 µM (inactive) | > 100 µM (inactive) | 19.8 µM (inactive) | > 100 µM (inactive) | > 100 µM (inactive) | > 100 µM (inactive) | > 100 µM (inactive) | > 100 µM (inactive) | > 100 µM (inactive) | 14.9 µM (inactive) | > 100 µM (inactive) | > 100 µM (inactive) | > 100 µM (inactive) |
| CCN(CC)/C(Cl)=C(Cl)\C(=C1\Nc2ccc(OC)cc21)[N+](=O)[O-] | > 100 µM (inactive) | 18.9 µM (inactive) | 75.5 µM (inactive) | 78.7 µM (inactive) | 13.7 µM (inactive) | 38.7 µM (inactive) | 59 µM (inactive) | > 100 µM (inactive) | 30.8 µM (inactive) | 20.2 µM (inactive) | 44.6 µM (inactive) | 95.7 µM (inactive) | > 100 µM (inactive) | 75.5 µM (inactive) | 83.6 µM (inactive) | 78.7 µM (inactive) | 88.1 µM (inactive) | 45.8 µM (inactive) | 37.8 µM (inactive) | 50.4 µM (inactive) |
| Cc1cc(Nc2ccc(/N=N/c3ccc(O)c4ncccc34)cc2)nc(C)n1 | 12.6 µM (inactive) | 18.3 µM (inactive) | 16.6 µM (inactive) | 7.03 µM (inactive) | 7.76 µM (inactive) | 6.52 µM (inactive) | 25.7 µM (inactive) | 18.6 µM (inactive) | 18 µM (inactive) | 10.7 µM (inactive) | 8.93 µM (inactive) | 35.2 µM (inactive) | 21.6 µM (inactive) | 23.9 µM (inactive) | 17.9 µM (inactive) | 15.9 µM (inactive) | 8.57 µM (inactive) | 18.6 µM (inactive) | 18.2 µM (inactive) | 6.62 µM (inactive) |
| CC1=CCCC2C1(C)CCC(C)C2(C)Cc1cc(O)ccc1O (centres undefined) | 14.4 µM (inactive) | 9.29 µM (inactive) | 13.2 µM (inactive) | 6.19 µM (inactive) | 5.74 µM (inactive) | 5.48 µM (inactive) | 7.1 µM (inactive) | 17.7 µM (inactive) | 10.8 µM (inactive) | 3.18 µM (inactive) | 4 µM (inactive) | 21 µM (inactive) | 12.9 µM (inactive) | 14.6 µM (inactive) | 11.1 µM (inactive) | 13.5 µM (inactive) | 5.94 µM (inactive) | 6.3 µM (inactive) | 15 µM (inactive) | 11.1 µM (inactive) |
| COC(=O)CCc1c(Cc2ccc[nH]2)[nH]c(C(=O)OCc2ccccc2)c1C | 16.8 µM (inactive) | 17.1 µM (inactive) | 18.4 µM (inactive) | 22.6 µM (inactive) | 15.8 µM (inactive) | 19.7 µM (inactive) | 25.1 µM (inactive) | 18.9 µM (inactive) | 11.9 µM (inactive) | 27.3 µM (inactive) | 18.6 µM (inactive) | 35.9 µM (inactive) | 28.9 µM (inactive) | > 100 µM (inactive) | 26 µM (inactive) | 19.5 µM (inactive) | 15.6 µM (inactive) | 24.6 µM (inactive) | 75.3 µM (inactive) | 18 µM (inactive) |
| CC(C)(C)OC(=O)N1Cc2cc(O)ccc2C[C@H]1C(=O)O | – | > 100 µM (inactive) | > 100 µM (inactive) | > 100 µM (inactive) | > 100 µM (inactive) | > 100 µM (inactive) | > 100 µM (inactive) | > 100 µM (inactive) | > 100 µM (inactive) | > 100 µM (inactive) | > 100 µM (inactive) | > 100 µM (inactive) | > 100 µM (inactive) | > 100 µM (inactive) | > 100 µM (inactive) | > 100 µM (inactive) | > 100 µM (inactive) | > 100 µM (inactive) | > 100 µM (inactive) | > 100 µM (inactive) |
| C/C=C/C=C/C1=NN(c2cccc(S(=O)(=O)O)c2)C2(C1)C(Cl)C(=O)N2c1nc2ccccc2s1 (centres undefined) | 15.1 µM (inactive) | 14.3 µM (inactive) | 15.4 µM (inactive) | 25.2 µM (inactive) | 8.36 µM (inactive) | 7.85 µM (inactive) | 8.24 µM (inactive) | 17.1 µM (inactive) | 13.7 µM (inactive) | 4.22 µM (inactive) | 14.4 µM (inactive) | 17.4 µM (inactive) | 16.3 µM (inactive) | 19.2 µM (inactive) | 14.3 µM (inactive) | 14.7 µM (inactive) | 11 µM (inactive) | 16.3 µM (inactive) | 13.4 µM (inactive) | 15.5 µM (inactive) |
| CC(CO)CCNc1ncnc2c1ncn2CCC#N (centres undefined) | > 100 µM (inactive) | > 100 µM (inactive) | > 100 µM (inactive) | > 100 µM (inactive) | > 100 µM (inactive) | > 100 µM (inactive) | > 100 µM (inactive) | > 100 µM (inactive) | > 100 µM (inactive) | > 100 µM (inactive) | > 100 µM (inactive) | > 100 µM (inactive) | > 100 µM (inactive) | > 100 µM (inactive) | > 100 µM (inactive) | > 100 µM (inactive) | > 100 µM (inactive) | > 100 µM (inactive) | > 100 µM (inactive) | > 100 µM (inactive) |
| COC(=O)C1C2OC(C)(C)OC2CN1S(=O)(=O)c1ccc(C)cc1 (centres undefined) | > 100 µM (inactive) | 0.0527 µM (active) | > 100 µM (inactive) | > 100 µM (inactive) | > 100 µM (inactive) | > 100 µM (inactive) | > 100 µM (inactive) | > 100 µM (inactive) | > 100 µM (inactive) | > 100 µM (inactive) | > 100 µM (inactive) | > 100 µM (inactive) | > 100 µM (inactive) | > 100 µM (inactive) | > 100 µM (inactive) | > 100 µM (inactive) | 14.5 µM (inactive) | > 100 µM (inactive) | > 100 µM (inactive) | > 100 µM (inactive) |
